Experimental findings from PMC12040169 (PLOS Biology, 2025) are described below.

The series is described as follows: in vitro. The settings on record: human, hela cells, % viability.

For orientation: viability means a read-out of living cells in per cent, often relative to untreated cells. In the case of `COCC(=O)N1CCc2sccc2C1c1ccc(NCc2ccc(F)cc2F)cc1` (stereo not drawn) [CBK286460], the viability at 28.5 h, 10 µM amounted to 100%.
Then `CCOc1ccccc1CNc1ccc(C2c3ccsc3CCN2C(=O)COC)cc1` (stereo not drawn) [CBK286461], with 88.5%.
Turning to `O=C(Cn1nnc2ccccc21)c1ccc2c(c1)CCN2S(=O)(=O)c1ccccc1` [CBK286464], the viability at 28.5 h, 10 µM was determined as 101%.
Turning to `CC(=O)N1CCc2sccc2C1c1ccc(NC(=O)c2cccc(F)c2)cc1` (stereo not drawn) [CBK286466], the viability at 28.5 h, 10 µM was 83.8%.
Regarding `COCC(=O)N1CCc2sccc2C1c1ccc(NC(=O)c2ccc(OC)cc2)cc1` (stereo not drawn) [CBK286467], the viability at 28.5 h, 10 µM was 103%.
Regarding `COc1ccc(-c2ccc(CN(Cc3ccc4c(c3)OCO4)CC(C)O)cc2)cc1` (stereo not drawn) [CBK286470], the viability at 28.5 h, 10 µM came to 95%.
Next, `COc1ccc(-c2ccccc2)cc1CN(Cc1ccc2c(c1)OCO2)CC(C)O` (stereo not drawn) [CBK286471]: 89.7%; `COc1cc2c(cc1CN(Cc1ccc3c(c1)OCO3)CC(C)O)CCC2` (stereo not drawn) [CBK286473]: 91.6%.
On to `CC(O)CN(Cc1ccc(-n2cnc3ccccc32)cc1)Cc1ccc2c(c1)OCO2` (stereo not drawn) [CBK286475], for which the viability at 28.5 h, 10 µM is 101%.
Next, `Cc1ccccc1C1(O)CCN(C(=O)C(c2cccs2)c2cccs2)CC1` [CBK286483]: 106%; `Fc1ccc(CN(Cc2ccsc2)[C@@H]2COC[C@H]2c2ccc(F)cc2)cc1` [CBK286486]: 92.8%; `COc1ccc(CN(Cc2cccs2)[C@@H]2COC[C@H]2c2ccc(F)cc2)cc1` [CBK286487]: 90.6%.
Then `COc1ccc(CN(Cc2ccc(NC(C)=O)cc2)[C@@H]2COC[C@H]2c2ccc(F)cc2)cc1` [CBK286488], with 105%; and `CN(C(=O)c1c[nH]nc1C1CCCN(Cc2ccnc3ccccc23)C1)C1CCCCC1` (stereo not drawn) [CBK286491], with 99.3%; and `COc1ccc(CC(=O)N2CCCCC2c2ccc(Cc3cccc(F)c3)nc2)cc1` (stereo not drawn) [CBK286493], with 90.3%.
For `Cc1ccc(C)c(C2CCCN2C(=O)c2ccc(=O)n(CC(=O)Nc3ccc(F)cc3)c2)c1` (stereo not drawn) [CBK286495], the viability at 28.5 h, 10 µM was determined as 93.4%.
Next, `CC(C)(C(=O)N1CCC(CC(=O)NCCc2ccccc2F)CC1)c1ccc(F)cc1` [CBK286497]: 104%; `COc1ccc(CC(=O)N2CCCC(c3cccc(Cc4cccc(C)c4)n3)C2)cc1` (stereo not drawn) [CBK286498]: 99.8%; `CCn1c(CN2CCCC2c2nc(N(C)C)ncc2-c2cccc(F)c2)nc2ccccc21` (stereo not drawn) [CBK286500]: 102%.
Next, `Cc1nn(C)cc1CN1CCCC1c1nc(N(C)C)ncc1-c1cccc(Cl)c1` (stereo not drawn) [CBK286501]: 86%; `O=C(c1ccccc1)N1CCCC(c2cccc(Cc3ccc(Cl)cc3)n2)C1` (stereo not drawn) [CBK286502]: 99.5%.
Turning to `O=C(CN1CCCC(c2cccc(Cc3ccc(F)cc3)n2)C1)Nc1nccs1` (stereo not drawn) [CBK286503], the viability at 28.5 h, 10 µM is 93.1%.
Then `Cc1nc(CC(=O)N2CCCC(c3cccc(Cc4ccc(Cl)cc4)n3)C2)cs1` (stereo not drawn) [CBK286505], with 94.3%; and `Cc1nn(C)cc1S(=O)(=O)N1CCCC(c2cccc(Cc3ccc(Cl)cc3)n2)C1` (stereo not drawn) [CBK286506], with 88.4%; and `O=C(C1CCCC1)N1CCC(c2cccc(Cc3ccccc3Cl)n2)CC1` [CBK286507], with 87.6%.
Next, `O=C(CN1CCOCC1)N1CCC(c2cccc(Cc3ccc(C(F)(F)F)cc3)n2)CC1` [CBK286508]: 101%; `CC1CCc2nc(NC(=O)CC3CCN(C(=O)Cc4ccccc4)CC3)sc2C1` (stereo not drawn) [CBK286509]: 86.4%; `COc1ccc(CCC(=O)N2CCCC(c3nccnc3-c3cccc(C)c3)C2)cc1` (stereo not drawn) [CBK286510]: 99.6%.
Take `O=C(CCc1ccc(F)cc1)N1CCC(c2cccc(Cc3ccccc3)n2)CC1` [CBK286511]: the viability at 28.5 h, 10 µM is 114%.
`CCC(C)NC(=O)C1(Cc2cccc(-c3ccc(OC)cc3)c2)CCOCC1` (stereo not drawn) [CBK286513]: the viability at 28.5 h, 10 µM was 94.9%.
With `COc1ccc(-c2cccc(CC3(C(=O)NCc4cccs4)CCOCC3)c2)cc1` [CBK286514], the viability at 28.5 h, 10 µM is 88.5%.
Then `COc1ccccc1-c1ccc(CC2(C(=O)NCCc3ccccc3)CCOCC2)cc1` [CBK286516], with 102%; and `COc1ccccc1-c1ccc(CC2(C(=O)NCc3cccs3)CCOCC2)cc1` [CBK286517], with 93%.
Regarding `COc1ccccc1-c1ccc(CC2(C(=O)NCc3ccc(F)cc3)CCOCC2)cc1` [CBK286518], the viability at 28.5 h, 10 µM came out at 100%.
Then `COc1ccccc1-c1ccc(CC2(C(=O)NCc3cccc(F)c3)CCOCC2)cc1` [CBK286521], with 92.6%.
As for `Cc1cc(C)cc(-c2ccc(CC3(C(=O)NC(C)CO)CCOCC3)cc2)c1` (stereo not drawn) [CBK286523], the viability at 28.5 h, 10 µM worked out at 110%.
As for `Cc1cc(Cc2ccc(Cl)cc2)cc(C2CCN(C(=O)Cc3csc(C)n3)CC2)n1` [CBK286526], the viability at 28.5 h, 10 µM came out at 88.5%.
With `C[C@@H]1CN(Cc2ccco2)[C@H](C)CN1CC(=O)Nc1nc2c(s1)CCCC2` [CBK286530], the viability at 28.5 h, 10 µM came out at 100%.
Next, `Cc1c(NC(=O)CCCC(=O)O)c(=O)n(-c2ccccc2)n1C` [CBK286532]: 93.1%; `O=C(O)CCC(=O)N1CCN(C(=O)c2ccco2)CC1` [CBK286533]: 102%; `O=C(O)CCCCCN1C(=O)C2CC=CCC2C1=O` (stereo not drawn) [CBK286534]: 82.5%.
Then `O=C(O)C1C2C=CC(C2)C1C(=O)N1CCc2ccccc21` (stereo not drawn) [CBK286537], with 85.2%.
Then `O=C(O)C1=CC(c2ccc(O)cc2)n2ncnc2N1` (stereo not drawn) [CBK286545], with 88.7%; and `CC(=O)N1N=C(c2ccc3c(c2)OCO3)CC1c1ccc(C(=O)O)cc1` (stereo not drawn) [CBK286547], with 95.4%; and `COc1cccc(CN2CCC(C(=O)O)CC2)c1OC` [CBK286548], with 90.5%.
As to `CC(=O)N(CN1C(=O)CCC1=O)C(CC(C)C)C(=O)O` (stereo not drawn) [CBK286553], the viability at 28.5 h, 10 µM came to 87.7%.
With `O=C(O)C1CCN(C(=O)CSc2nc3ccccc3o2)CC1` [CBK286557], the viability at 28.5 h, 10 µM was determined as 91.6%.
On to `O=C(O)c1cc(-c2ccccc2)oc1CSCCO` [CBK286559], for which the viability at 28.5 h, 10 µM was determined as 92.3%.
Take `Cc1cc(C(=O)NC(Cc2c[nH]c3ccccc23)C(=O)O)c(C)o1` (stereo not drawn) [CBK286560]: the viability at 28.5 h, 10 µM stood at 86.5%.
Turning to `COc1cc(NS(=O)(=O)c2ccccc2)c(Cl)cc1C(=O)O` [CBK286564], the viability at 28.5 h, 10 µM was 98%.
As to `Nc1cc(-c2ccccc2)nn1-c1ccc(C(=O)O)cc1` [CBK286565], the viability at 28.5 h, 10 µM turned out to be 84.9%.
Then `CC1C(c2ccccc2)CCC(C(=O)O)C1C(=O)O` (stereo not drawn) [CBK286566], with 90.5%.
Next, `CC1CCN(C(=O)C2CC(=O)N(c3ccc(C(=O)O)cc3)C2)CC1` (stereo not drawn) [CBK286568]: 87.6%; `CCOC(=O)N1CCC(NC(=O)CCC(=O)O)CC1` [CBK286569]: 91.5%; `O=C(COc1ccc2ccccc2c1)N[C@@H](C(=O)O)c1ccc(O)cc1` [CBK286571]: 88.8%.
Then `Cc1cc(C(=O)NCCC(=O)O)c2ccccc2n1` [CBK286573], with 86%; and `Cn1c(=O)cc(NCCCCCC(=O)O)[nH]c1=O` [CBK286574], with 88.3%; and `O=C(O)C(Cc1ccccc1)C(C(=O)O)c1ccccc1` (stereo not drawn) [CBK286578], with 94.3%.
Take `C[C@H](NC(=O)N1CCN(C(=O)c2c[nH]c3ccccc23)CC1)C(=O)O` [CBK286581]: the viability at 28.5 h, 10 µM worked out at 84.5%.
As to `O=C(O)CN(CC(=O)Nc1ccc(Cl)cc1)Cc1ccccc1` [CBK286585], the viability at 28.5 h, 10 µM stood at 85.5%.
On to `O=C(O)c1ccccc1C1Nc2ccccc2S(=O)(=O)N1Cc1ccccc1` (stereo not drawn) [CBK286587], for which the viability at 28.5 h, 10 µM was 107%.
Consider `C=CCC(NCc1ccccc1)c1ccc(C(=O)O)o1` (stereo not drawn) [CBK286591], for which the viability at 28.5 h, 10 µM was 84.1%.
For `CC(C)C(C(=O)O)N(C)C(=O)OCc1ccccc1` (stereo not drawn) [CBK286593], the viability at 28.5 h, 10 µM came out at 84.8%.
Turning to `CC(C)(C)OC(=O)NC1CCN(C(=O)CCC(=O)O)CC1` [CBK286604], the viability at 28.5 h, 10 µM was 95.9%.
With `O=C(CSc1ccccn1)Nc1ccc(C(=O)O)cc1` [CBK286605], the viability at 28.5 h, 10 µM stood at 87.2%.
As for `COc1ccc(CCN2C(=O)CC(C(=O)O)S/C2=N\c2ccccc2)cc1` (stereo not drawn) [CBK286606], the viability at 28.5 h, 10 µM stood at 90.6%.
Then `CC(C)C(NC(=O)C1CCC(C(C)(C)C)CC1)C(=O)O` (stereo not drawn) [CBK286610], with 95.5%.
Then `COc1cccc(N2CC(C(=O)Nc3cccc(C(=O)O)c3)CC2=O)c1` (stereo not drawn) [CBK286612], with 99.7%.
For the compound `N#Cc1cccnc1SC(C(=O)O)c1ccccc1` (stereo not drawn) [CBK286614], the viability at 28.5 h, 10 µM is 106%.
As for `O=C(O)C1CCN(C(=O)CCn2ccc3cc(Br)ccc32)CC1` [CBK286617], the viability at 28.5 h, 10 µM came to 105%.
Then `COc1ccc(-c2csc(NC(=O)C(C)C)c2C(=O)O)cc1` [CBK286622], with 83.1%; and `O=C(O)Cn1cc(C(C(=O)O)N2CCN(c3ccccc3)CC2)c2ccccc21` (stereo not drawn) [CBK286625], with 78.1%.
Then `O=C(O)C1CCC(CNc2ccc([N+](=O)[O-])cn2)CC1` (stereo not drawn) [CBK286626], with 81.2%; and `Cn1cc(C(C(=O)O)N2CCN(c3ccccc3)CC2)c2cc(C(=O)O)ccc21` (stereo not drawn) [CBK286627], with 115%; and `O=C(O)c1ccc(OCCN2C3=NCCN3c3ccccc32)cc1` [CBK286629], with 93%.
For `O=C(O)c1nccnc1C(=O)NCCc1c[nH]c2ccc(Cl)cc12` [CBK286630], the viability at 28.5 h, 10 µM was 93.8%.
For the compound `CCOC(=O)N1CCN(C(C(=O)O)c2c[nH]c3ccc(C)cc23)CC1` (stereo not drawn) [CBK286632], the viability at 28.5 h, 10 µM was found to be 93.1%.
Then `CC(=O)N1CCN(C(C(=O)O)c2c[nH]c3ccc(NC(=O)C(C)C)cc23)CC1` (stereo not drawn) [CBK286634], with 89.7%.
